Results on 3 compounds are retold here after article PMC5814754, “Quantitative, Wide-Spectrum Kinase Profiling in Live Cells for Assessing the Effect of Cellular ATP on Target Engagement” (Cell Chemical Biology, 2018).

pEC50, pIC50: −log10 of the molar value. Where two headings read alike, the source gives them in different places. A value given as a limit tells only on which side of the number the result lay.

One assay relates to INSR. As to conditions: read-out: Crizotinib IC50 Biochemical; ref Cui et al., 2011; cited from earlier work.
Assay [1] addresses full-length kinase/Nluc fusion proteins (Homo sapiens, UniProt O00444). The assay can be described thus: Apparent affinity (EC50) of energy transfer probes by titration onto live HEK293 cells expressing kinase/Nluc fusions (Table S1). Type of assay: binding. As to conditions: PLK4, Nluc N; read-out: Probe EC50.
In assay [2] the target is full-length kinase/Nluc fusion proteins (Homo sapiens, UniProt P45983). Described as above. The assay is classed as binding. Conditions: read-out: Probe EC50.
full-length kinase/Nluc fusion proteins (Homo sapiens, UniProt P45983), sequence (P45983 whole entry, the tested form may be a part): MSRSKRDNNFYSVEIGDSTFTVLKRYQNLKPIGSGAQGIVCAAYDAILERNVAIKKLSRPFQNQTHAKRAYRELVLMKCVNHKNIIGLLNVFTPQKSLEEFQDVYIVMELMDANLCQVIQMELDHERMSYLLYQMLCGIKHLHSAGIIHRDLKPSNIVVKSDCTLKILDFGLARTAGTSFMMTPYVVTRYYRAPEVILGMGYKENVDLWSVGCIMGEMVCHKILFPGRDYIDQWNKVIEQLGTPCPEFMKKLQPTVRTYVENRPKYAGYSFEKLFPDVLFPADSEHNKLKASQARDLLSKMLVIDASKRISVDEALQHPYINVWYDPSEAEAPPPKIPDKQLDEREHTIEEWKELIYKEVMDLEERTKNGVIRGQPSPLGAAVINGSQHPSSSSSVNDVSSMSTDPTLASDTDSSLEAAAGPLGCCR
For assay [3], the target named is full-length kinase/Nluc fusion proteins (Homo sapiens, UniProt P80192). Described as above. The assay is classed as binding. Conditions: MAP3K9, Nluc N; read-out: Probe EC50.
full-length kinase/Nluc fusion proteins (Homo sapiens, UniProt P80192), sequence (P80192 whole entry, the tested form may be a part): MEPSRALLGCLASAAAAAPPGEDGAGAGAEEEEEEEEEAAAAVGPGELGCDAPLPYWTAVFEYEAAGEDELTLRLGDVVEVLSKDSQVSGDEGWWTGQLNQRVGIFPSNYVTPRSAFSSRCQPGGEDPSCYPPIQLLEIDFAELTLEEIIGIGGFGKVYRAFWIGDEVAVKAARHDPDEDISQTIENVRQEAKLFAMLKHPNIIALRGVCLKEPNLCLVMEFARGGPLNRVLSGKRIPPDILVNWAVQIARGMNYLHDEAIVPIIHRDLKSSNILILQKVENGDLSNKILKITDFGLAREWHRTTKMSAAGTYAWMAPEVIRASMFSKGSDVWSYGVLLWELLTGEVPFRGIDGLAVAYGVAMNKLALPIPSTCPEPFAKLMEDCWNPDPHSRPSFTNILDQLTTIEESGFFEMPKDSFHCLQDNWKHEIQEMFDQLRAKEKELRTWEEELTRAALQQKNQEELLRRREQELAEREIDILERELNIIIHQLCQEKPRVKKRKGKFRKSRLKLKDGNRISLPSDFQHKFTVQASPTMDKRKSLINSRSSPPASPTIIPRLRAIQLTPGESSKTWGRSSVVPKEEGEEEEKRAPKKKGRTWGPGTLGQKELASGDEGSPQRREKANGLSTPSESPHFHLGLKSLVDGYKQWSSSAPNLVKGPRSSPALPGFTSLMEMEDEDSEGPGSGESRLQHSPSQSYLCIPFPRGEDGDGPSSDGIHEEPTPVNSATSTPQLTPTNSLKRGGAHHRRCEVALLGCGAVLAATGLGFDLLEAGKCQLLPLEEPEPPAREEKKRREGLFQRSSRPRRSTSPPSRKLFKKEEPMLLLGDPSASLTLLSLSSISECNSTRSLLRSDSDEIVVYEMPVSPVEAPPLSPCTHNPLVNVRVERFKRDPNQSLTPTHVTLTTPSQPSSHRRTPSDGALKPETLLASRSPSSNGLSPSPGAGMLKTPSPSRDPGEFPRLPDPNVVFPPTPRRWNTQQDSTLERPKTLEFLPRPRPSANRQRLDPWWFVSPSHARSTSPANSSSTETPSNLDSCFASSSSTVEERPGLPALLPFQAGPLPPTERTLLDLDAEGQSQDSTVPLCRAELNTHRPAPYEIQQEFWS
Assay [4] addresses full-length kinase/Nluc fusion proteins (Homo sapiens, UniProt Q06187). The description is as above. Type of assay: binding. As to conditions: BTK, Nluc C; read-out: Probe EC50.
Assay [5] has as its target full-length kinase/Nluc fusion proteins (Homo sapiens, UniProt Q15375). The description is as above. Type of assay: binding. As to conditions: EPHA7, Nluc C; read-out: Probe EC50.
Assay [6] addresses full-length kinase/Nluc fusion proteins (Homo sapiens, UniProt P29322). The assay is described as above. As to conditions: EPHA8, Nluc C; read-out: Probe EC50. Type of assay: binding.

As for `C[C@@H](Oc1cc(-c2cnn(C3CCNCC3)c2)cnc1N)c1c(Cl)ccc(F)c1Cl` [Crizotinib], the pIC50 in the assay on INSR was […].

full-length kinase/Nluc fusion proteins (Homo sapiens, UniProt P29322), sequence (P29322 28-1005): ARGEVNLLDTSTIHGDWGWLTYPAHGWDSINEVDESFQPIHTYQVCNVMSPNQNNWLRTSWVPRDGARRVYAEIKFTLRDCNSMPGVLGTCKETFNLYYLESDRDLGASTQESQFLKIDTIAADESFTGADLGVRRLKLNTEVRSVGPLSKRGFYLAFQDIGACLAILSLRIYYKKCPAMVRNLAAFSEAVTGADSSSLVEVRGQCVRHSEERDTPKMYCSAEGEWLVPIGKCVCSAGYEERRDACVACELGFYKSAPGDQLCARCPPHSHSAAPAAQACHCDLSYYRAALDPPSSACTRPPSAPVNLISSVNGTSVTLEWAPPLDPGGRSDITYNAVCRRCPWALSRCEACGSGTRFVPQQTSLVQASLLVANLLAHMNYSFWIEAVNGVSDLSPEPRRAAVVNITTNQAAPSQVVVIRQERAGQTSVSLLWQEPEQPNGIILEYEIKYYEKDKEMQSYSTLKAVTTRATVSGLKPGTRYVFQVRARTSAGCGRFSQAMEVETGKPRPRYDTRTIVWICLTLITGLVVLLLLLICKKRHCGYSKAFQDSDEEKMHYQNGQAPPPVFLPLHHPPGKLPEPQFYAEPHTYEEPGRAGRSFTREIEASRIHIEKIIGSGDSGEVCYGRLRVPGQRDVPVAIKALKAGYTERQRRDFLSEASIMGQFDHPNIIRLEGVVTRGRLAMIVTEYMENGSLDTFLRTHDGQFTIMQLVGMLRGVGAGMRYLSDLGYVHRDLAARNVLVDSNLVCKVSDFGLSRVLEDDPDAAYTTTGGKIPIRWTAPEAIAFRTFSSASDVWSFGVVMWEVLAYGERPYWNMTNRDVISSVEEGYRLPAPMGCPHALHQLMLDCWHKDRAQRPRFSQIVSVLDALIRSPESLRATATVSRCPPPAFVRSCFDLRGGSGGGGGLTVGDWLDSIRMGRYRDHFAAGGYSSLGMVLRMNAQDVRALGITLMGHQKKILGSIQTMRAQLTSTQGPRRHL
full-length kinase/Nluc fusion proteins (Homo sapiens, UniProt Q15375), sequence (Q15375 28-998): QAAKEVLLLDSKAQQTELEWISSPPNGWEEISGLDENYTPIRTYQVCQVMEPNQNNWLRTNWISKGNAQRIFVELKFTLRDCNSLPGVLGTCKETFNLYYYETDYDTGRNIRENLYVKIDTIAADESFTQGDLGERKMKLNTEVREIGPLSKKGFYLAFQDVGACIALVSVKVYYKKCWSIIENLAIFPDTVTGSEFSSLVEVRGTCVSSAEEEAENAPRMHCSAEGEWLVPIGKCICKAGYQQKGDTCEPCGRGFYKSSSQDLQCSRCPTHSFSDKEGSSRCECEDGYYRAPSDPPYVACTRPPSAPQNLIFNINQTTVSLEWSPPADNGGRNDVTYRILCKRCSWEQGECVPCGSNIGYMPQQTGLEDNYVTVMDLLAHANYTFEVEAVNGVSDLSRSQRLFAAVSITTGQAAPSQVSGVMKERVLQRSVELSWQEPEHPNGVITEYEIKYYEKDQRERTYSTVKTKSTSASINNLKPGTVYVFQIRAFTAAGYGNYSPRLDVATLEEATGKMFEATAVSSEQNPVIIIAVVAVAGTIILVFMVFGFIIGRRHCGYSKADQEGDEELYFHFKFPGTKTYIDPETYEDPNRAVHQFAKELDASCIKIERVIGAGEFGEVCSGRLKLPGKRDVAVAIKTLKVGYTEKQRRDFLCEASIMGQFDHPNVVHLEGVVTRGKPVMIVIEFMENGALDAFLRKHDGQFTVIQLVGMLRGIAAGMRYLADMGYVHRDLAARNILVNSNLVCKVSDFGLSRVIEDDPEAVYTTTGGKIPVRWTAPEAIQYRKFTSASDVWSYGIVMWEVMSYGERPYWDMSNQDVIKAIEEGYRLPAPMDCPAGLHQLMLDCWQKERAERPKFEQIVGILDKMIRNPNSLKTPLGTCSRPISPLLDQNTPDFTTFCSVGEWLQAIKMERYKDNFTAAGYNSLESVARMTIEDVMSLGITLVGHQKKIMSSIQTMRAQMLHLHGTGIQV
full-length kinase/Nluc fusion proteins (Homo sapiens, UniProt Q06187), sequence (Q06187 whole entry, the tested form may be a part): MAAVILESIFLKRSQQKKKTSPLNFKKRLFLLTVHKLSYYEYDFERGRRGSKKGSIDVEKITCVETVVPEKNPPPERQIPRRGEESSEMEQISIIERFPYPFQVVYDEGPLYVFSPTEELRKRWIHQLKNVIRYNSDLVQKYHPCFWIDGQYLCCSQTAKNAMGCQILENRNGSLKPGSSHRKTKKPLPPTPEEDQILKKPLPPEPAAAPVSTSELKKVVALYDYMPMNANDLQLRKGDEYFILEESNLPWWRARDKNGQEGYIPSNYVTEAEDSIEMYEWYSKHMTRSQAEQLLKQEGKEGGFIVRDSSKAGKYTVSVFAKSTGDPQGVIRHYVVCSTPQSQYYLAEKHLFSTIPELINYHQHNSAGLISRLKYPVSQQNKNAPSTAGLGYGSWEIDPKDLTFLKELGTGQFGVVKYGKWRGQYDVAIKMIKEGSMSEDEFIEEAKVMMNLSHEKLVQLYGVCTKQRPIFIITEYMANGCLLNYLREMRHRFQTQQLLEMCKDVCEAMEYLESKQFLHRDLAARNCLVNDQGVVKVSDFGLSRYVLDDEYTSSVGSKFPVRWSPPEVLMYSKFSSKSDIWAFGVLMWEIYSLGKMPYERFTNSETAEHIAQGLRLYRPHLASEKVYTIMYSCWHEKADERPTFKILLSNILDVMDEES

Take `CNC(=O)c1ccccc1Nc1nc(Nc2ccc(N3CCN(C(=O)CCOCCOCCOCCOCCNC(=O)CCc4ccc5n4[B-](F)(F)[N+]4=C(c6ccc[nH]6)C=CC4=C5)CC3)cc2)ncc1Cl` [Energy Transfer Probe 5, 2-((2-((4-(4-(1-amino-3,6,9,12-tetraoxapentadecan-15-oyl)piperazin-1-yl)phenyl)amino)-5-chloropyrimidin-4-yl)amino)-N-methylbenzamide-NanoBRET 590]: the pEC50 in assay [1] was 6.40; in assay [2] (JNK1, Nluc N) it was less than 6.00; in assay [2] (MAPK8, Nluc N), 6.52; in assay [3] it was less than 6.00; in assay [4], 6.22; in assay [5] it was less than 6.00.

In the case of `Cc1nc(Nc2ncc(C(=O)Nc3c(C)cccc3Cl)s2)cc(N2CCN(CCOCCNC(=O)CCc3ccc4n3[B-](F)(F)[N+]3=C(c5ccc[nH]5)C=CC3=C4)CC2)n1` [Energy Transfer Probe 6, 2-((6-(4-(2-(2-aminoethoxy)ethyl)piperazin-1-yl)-2-methylpyrimidin-4-yl)amino)-N-(2-chloro-6-methylphenyl)thiazole-5-carboxamide-NanoBRET 590], in assay [6], the pEC50 is 8.00.
